Assay: Surface tension of 5% solutions in water (Fisher Surface Tensiomat Model 21)
Format: physicochemical
Conditions: surfactants, Table 2
Protocol: The surface tensions of various organic acids and different formulations of the present invention were determined. Solutions were diluted to 5% in water and tested using a Fisher Surface Tensiomat Model 21.
Polysorbate-80 is allowed only for use in milk replacers and not for feed application. In the European Union ethoxylated castor oil surfactant is allowed for use in all animals. In order to determine a suitable surfactant to replace polysorbate-80, the surface tensions of different PEG ethoxylated castor oil surfactants were tested in 5% solutions.
The two best formulations from Example 1 were prepared using polysorbate-80 or castor oil PEG-60. The surface tension of 5% solutions of each formulation in water was determined.

Polysorbate-80
Surface Tension: 40.57 dynes/cm

Source: US20120148718A1, “METHOD FOR CONDITIONING ANIMAL FEED” (priority 2009, published 2012)
